Laboratory results reported in patent US20100279918A1, “Chimeric Constructs Between Cancer-Homing Peptides and Cell-Penetrating Peptides Coupled to Anticancer Drugs and/or Diagnostic Agent/Agents” (Burnham Institute for Medical Research, priority 2006, published 2010).
Entries after “also recorded” stand apart in the source; their conditions may differ. Read-outs that look alike come from different tables or passages of the source. Where a SMILES comes first, the peptide text is derived from it. Bridges are numbered along the chain shown (N, C = ends). The star is where a group is joined. Chlorambucil = O=C(CCCc1ccc(N(CCCl)CCCl)cc1)*

Experiments:
tumor mice = conditions: about 300 μg per mouse for 15 days; cited from earlier work
MDA-MB-231 cells = assay: Toxicity study (CellTiter-Glo); type: cell-based, human
Description: FIG. 13. Cytotoxicity study of Cbl and Cbl conjugated peptides in MDA-MB-231 cell line. […] (altogether 48 h). […] IC50 values were calculated using GraphPad Prism 4 software.

MCF-7 cells = assay: Toxicity study (CellTiter-Glo)
Description: FIG. 11. Cytotoxicity study of pVEC (SEQ ID NO:6) in MCF-7 cell line. Cells were exposed to different concentrations of pVEC solution in 150 μl of 1% FBS containing media and incubated for 2 h or 48 h at 37° C. The plate was cooled to room temperature, CellTiter-Glo® Reagent (150 μl) was added and the luminescence was measured. The percent of viable cells was compared to the non-treated cells.
FIG. 12. Cytotoxicity study of Cbl and Cbl conjugated peptides in MCF-7 cell line. Cells were exposed to different concentrations of Cbl, Cbl-pVEC (SEQ ID NO:6), Cbl-CREKA-pVEC (SEQ ID NO:22) and Cbl-PEGA-pVEC (SEQ ID NO:21) (0, 1, 5, 55, 100, 150, 200, 400 and 800 (only with Cbl) μM) solution in 150 μl of 1% FBS containing complete media and incubated for 3 h at 37° C. After that 150 μl of 10% FBS containing media was added and the cells were incubated additionally for 45 h at 37° C. (altogether 48 h). The plate was cooled to room temperature, CellTiter-Glo® Reagent (150 μl) was added and the luminescence was measured. The percent of viable cells was compared to the non-treated cells. IC50 values were calculated using GraphPad Prism 4 software.
MCF-7 and MDA-MB-231 cells (20 000 cells/well) were seeded in a 48 well plate two days before the experiment. The cells were exposed to drug in different concentration in full media containing 1% FBS for 3 h where after 10% FBS containing full media was added to achieve 5% FBS containing media and then incubated 45 or 69 h at 37° C. The plate was cooled to room temperature and CellTiter-Glo® Reagent (Promega) was added. The plate was incubated for 10 min at room temperature where after the luminescence was measured.

[1] = tested on: MDA-MB-435 orthotopic xenograft tumors; assay: Treatment of mice bearing MDA-MB-435 tumors with Cbl-peptide conjugates (tumor growth); type: in vivo, nude Balb/c mice; conditions: 15 μg Cbl-equivalent/mouse i.v. every other day, seven times; p<0.01 vs controls
Description: FIG. 26. The inhibition of MDA-MB-435 tumor growth in mice with the Cbl-CREKA-pVEC (SEQ ID NO:22) conjugates. The MDA-MB-435 orthotopic xenografted mice (8 mice/group) were systemically treated with 15 μg of Cbl equivalent of Cbl-CREKA-pVEC (SEQ ID NO:22) and of the controls.
The orthotopic xenografted breast tumors were established by injecting 1×10^6 MDA-MB-435 human breast cancer cells into the mammary fat pad of nude Balb/c mice. Treatment started when mean tumor volumes reached about 100 mm^3. Mice with size-matched tumors were randomized into five groups (eight animals per group): Cbl-CREKA-pVEC (SEQ ID NO:22), Cbl plus CREKA-pVEC, Cbl-CREKA (SEQ ID NO:1), Cbl-pVEC (SEQ ID NO:6) and PBS. Mice were treated intravenously with 15 μg of Cbl-equivalent/mouse every other day for seven times. Tumor size was measured every three days. The mice were monitored for weight loss. The animal experiments reported here were approved by the Animal Research Committee of Burnham Institute for Medical Research.

[2] = MDA-MB-231, 3 h in 1% FBS media, then 45 h (altogether 48 h), read-out: IC50 value (cytotoxicity)
[3] = read-out: IC50 value (cytotoxicity), MCF-7, 3 h in 1% FBS media, then 45 h (altogether 48 h)

| SMILES | ED15d dose (tumor mice) [mg/kg] | IC50 (MDA-MB-231 cells; Homo sapiens, MDA-MB-231, read-out: IC50 value (cytotoxicity)) [µM] | IC50 (MCF-7 cells; Homo sapiens, MCF7, read-out: IC50 value (cytotoxicity)) [µM] | inhibition of tumor growth compared with control groups [1] | IC50 (MDA-MB-231 cells; [2]) [µM] | IC50 (MCF-7 cells; [3]) [µM] |
| --- | --- | --- | --- | --- | --- | --- |
| O=C(O)CCCc1ccc(N(CCCl)CCCl)cc1 [Cbl, reference compound] | 15 | 164 | 128 |  |  |  |
| CC[C@H](C)[C@H](NC(=O)[C@H](CCCNC(=N)N)NC(=O)[C@H](CCCNC(=N)N)NC(=O)[C@H](CCCNC(=N)N)NC(=O)[C@H](CC(C)C)NC(=O)[C@@H](NC(=O)[C@@H](NC(=O)[C@H](CC(C)C)NC(=O)[C@H](CC(C)C)NC(=O)[C@H](C)NC(=O)[C@H](CCCCN)NC(=O)[C@H](CCC(=O)O)NC(=O)[C@H](CCCNC(=N)N)NC(=O)[C@H](CS)NC(=O)CCCc1ccc(N(CCCl)CCCl)cc1)[C@@H](C)CC)[C@@H](C)CC)C(=O)N[C@@H](CCCNC(=N)N)C(=O)N[C@@H](CCCCN)C(=O)N[C@@H](CCC(N)=O)C(=O)N[C@@H](C)C(=O)N[C@@H](Cc1c[nH]cn1)C(=O)N[C@@H](C)C(=O)N[C@@H](Cc1c[nH]cn1)C(=O)N[C@@H](CO)C(=O)N[C@@H](CCCCN)C(N)=O [Cbl-CREKA-pVEC] (Chlorambucil-CREKALLIILRRRIRKQAHAHSK-NH2) |  |  |  | significant decrease in tumor growth; also recorded: significant inhibition of tumor growth | 8.2 | 10.5 |
| CC[C@H](C)[C@H](NC(=O)[C@H](CCCNC(=N)N)NC(=O)[C@H](CCCNC(=N)N)NC(=O)[C@H](CCCNC(=N)N)NC(=O)[C@H](CC(C)C)NC(=O)[C@@H](NC(=O)[C@@H](NC(=O)[C@H](CC(C)C)NC(=O)[C@H](CC(C)C)NC(=O)[C@@H]1CSSC[C@H](NC(=O)CCCc2ccc(N(CCCl)CCCl)cc2)C(=O)N2CCC[C@H]2C(=O)NCC(=O)N2CCC[C@H]2C(=O)N[C@@H](CCC(=O)O)C(=O)NCC(=O)N[C@@H](C)C(=O)NCC(=O)N1)[C@@H](C)CC)[C@@H](C)CC)C(=O)N[C@@H](CCCNC(=N)N)C(=O)N[C@@H](CCCCN)C(=O)N[C@@H](CCC(N)=O)C(=O)N[C@@H](C)C(=O)N[C@@H](Cc1c[nH]cn1)C(=O)N[C@@H](C)C(=O)N[C@@H](Cc1c[nH]cn1)C(=O)N[C@@H](CO)C(=O)N[C@@H](CCCCN)C(N)=O [Cbl-PEGA-pVEC] (Chlorambucil-CPGPEGAGCLLIILRRRIRKQAHAHSK-NH2; disulfide 1-9) |  |  |  |  | 37.4 | 29.9 |
